Results: US20260137677A1, “PROTACS USEFUL AGAINST THE MAIN PROTEASE SARS-COV-2” (Tocris Cookson Limited, priority 2022, published 2026)
Read-outs that look alike come from different tables or passages of the source.

Tests used:
[1] = biological target: T1, recombinant SARS-CoV-2 main protease (Mpro) (Severe acute respiratory syndrome coronavirus 2, UniProt P0DTD1); assay: biochemical; conditions: FRET assay, Mpro 50 nM, substrate 10 μM
T1 construct: the main protease (Mpro; also called 3CLpro) which has an essential role in processing the polyproteins

[2] = tested on: SARS-CoV-2 (SARS-CoV2/ZG/297-20) in Vero E6 cells; assay: microbe, parasite or virus in culture; assay type: cell-based; conditions: for inhibition at 10 µM / inhibition at 50 µM: Severe acute respiratory syndrome coronavirus 2, Vero C1008, 72 h; for inhibition at 10 µM: read-out: Antiviral Activity 10 uM; for inhibition at 50 µM: read-out: Antiviral Activity 50 uM
[3] = tested on: SARS-CoV-2 (SARS-CoV2/ZG/297-20) in Vero E6 cells; assay: Plaque reduction assay in Vero E6 cells; assay type: cell-based
[4] = Severe acute respiratory syndrome coronavirus 2, Vero C1008, Vero E6 infected with SARS-CoV-2 at an MOI of 0.05, read-out: EC50 in antiviral assay

Row | Compound | IC50 [1] | inhibition at 10 µM [2] | inhibition at 50 µM [2] | EC50 ([2]; Severe acute respiratory syndrome coronavirus 2, Vero C1008, read-out: EC50 in antiviral assay) | reduction of viable virus in plaque reduction assay (in words) [3] | EC50 [2, 4]
1 | O=C1CCC(N2C(=O)c3cccc(OCCCCCCCCC(=O)Nc4cccn([C@@H](CC5CC5)C(=O)N[C@@H](C[C@@H]5CCNC5=O)C(=O)C(=O)NCc5ccccc5)c4=O)c3C2=O)C(=O)N1 (stereo partly drawn) [BT153, N-(1-((S)-1-(((S)-4-(benzylamino)-3,4-dioxo-1-((S)-2-oxopyrrolidin-3-yl)butan-2-yl)amino)-3-cyclopropyl-1-oxopropan-2-yl)-2-oxo-1,2-dihydropyridin-3-yl)-9-((2-(2,6-dioxopiperidin-3-yl)-1,3-dioxoisoindolin-4-yl)oxy)nonanamide] | < 100 nM | < 75% | < 75% | 3200 nM | efficient reduction of viable virus | –
2 | O=C1CCC(N2C(=O)c3cccc(OCCCCCCCCNC(=O)c4ccc5cncc(N6C(=O)NC7(CC(c8ccccc8Cl)C7)C6=O)c5c4)c3C2=O)C(=O)N1 (centres unmarked) [Compound C10778N, 4-(2-(2-chlorophenyl)-6,8-dioxo-5,7-diazaspiro[3.4]octan-7-yl)-N-(8-((2-(2,6-dioxopiperidin-3-yl)-1,3-dioxoisoindolin-4-yl)oxy)octyl)isoquinoline-6-carboxamide] | < 100 nM | < 75% | > 75% | – | efficiently reduces viable virus | 1700 nM
3 | O=C(COc1ccc(C2CCC(=O)NC2=O)cc1)NCCCCCNC(=O)c1ccc2cncc(N3C(=O)NC4(CC(c5ccccc5Cl)C4)C3=O)c2c1 (centres unmarked) [Compound C10778R, 4-(2-(2-chlorophenyl)-6,8-dioxo-5,7-diazaspiro[3.4]octan-7-yl)-N-(5-(2-(4-(2,6-dioxopiperidin-3-yl)phenoxy)acetamido)pentyl)isoquinoline-6-carboxamide] | < 100 nM | > 75% | > 75% | – | – | 4900 nM
4 | O=C1CCC(N2C(=O)c3cccc(OCCOCCOCCOCCNC(=O)c4ccc5cncc(N6C(=O)NC7(CC(c8ccccc8Cl)C7)C6=O)c5c4)c3C2=O)C(=O)N1 (centres unmarked) [Compound C10778S, 4-(2-(2-chlorophenyl)-6,8-dioxo-5,7-diazaspiro[3.4]octan-7-yl)-N-(2-(2-(2-(2-((2-(2,6-dioxopiperidin-3-yl)-1,3-dioxoisoindolin-4-yl)oxy)ethoxy)ethoxy)ethoxy)ethyl)isoquinoline-6-carboxamide] | < 100 nM | < 25% | > 75% | – | – | –
5 | O=C1CCC(N2C(=O)c3cccc(OCCCCCCCCNC(=O)c4ccc5c(N6C(=O)NC7(CC(c8ccccc8Cl)C7)C6=O)cncc5c4)c3C2=O)C(=O)N1 (centres unmarked) [Compound C10778T, 4-(2-(2-chlorophenyl)-6,8-dioxo-5,7-diazaspiro[3.4]octan-7-yl)-N-(8-((2-(2,6-dioxopiperidin-3-yl)-1,3-dioxoisoindolin-4-yl)oxy)octyl)isoquinoline-7-carboxamide] | < 100 nM | < 0% | < 0% | – | – | –
6 | O=C1CCC(N2C(=O)c3cccc(OCCCCNC(=O)c4ccc5c(N6C(=O)NC7(CC(c8ccccc8Cl)C7)C6=O)cncc5c4)c3C2=O)C(=O)N1 (centres unmarked) [Compound C10778U, 4-(2-(2-chlorophenyl)-6,8-dioxo-5,7-diazaspiro[3.4]octan-7-yl)-N-(4-((2-(2,6-dioxopiperidin-3-yl)-1,3-dioxoisoindolin-4-yl)oxy)butyl)isoquinoline-7-carboxamide] | < 100 nM | < 25% | < 25% | – | – | –
7 | O=C1CCC(N2C(=O)c3cccc(OCCNC(=O)c4ccc5c(N6C(=O)NC7(CC(c8ccccc8Cl)C7)C6=O)cncc5c4)c3C2=O)C(=O)N1 (centres unmarked) [Compound C10778V, 4-(2-(2-chlorophenyl)-6,8-dioxo-5,7-diazaspiro[3.4]octan-7-yl)-N-(2-((2-(2,6-dioxopiperidin-3-yl)-1,3-dioxoisoindolin-4-yl)oxy)ethyl)isoquinoline-7-carboxamide] | < 100 nM | < 25% | < 25% | – | – | –
8 | O=C1CCC(N2C(=O)c3ccc(NCCCCCCNC(=O)c4ccc5c(N6C(=O)NC7(CC(c8ccccc8Cl)C7)C6=O)cncc5c4)cc3C2=O)C(=O)N1 (centres unmarked) [Compound C10778W, 4-(2-(2-chlorophenyl)-6,8-dioxo-5,7-diazaspiro[3.4]octan-7-yl)-N-(6-((2-(2,6-dioxopiperidin-3-yl)-1,3-dioxoisoindolin-5-yl)amino)hexyl)isoquinoline-7-carboxamide] | < 1000 nM | < 0% | < 0% | – | – | –
9 | O=C(COc1ccc(C2CCC(=O)NC2=O)cc1)NCCCCCNC(=O)c1ccc2c(N3C(=O)NC4(CC(c5ccccc5Cl)C4)C3=O)cncc2c1 (centres unmarked) [Compound C10778X, 4-(2-(2-chlorophenyl)-6,8-dioxo-5,7-diazaspiro[3.4]octan-7-yl)-N-(5-(2-(4-(2,6-dioxopiperidin-3-yl)phenoxy)acetamido)pentyl)isoquinoline-7-carboxamide] | < 100 nM | < 0% | < 0% | – | – | –
10 | O=C1CCC(N2C(=O)c3cccc(OCCOCCOCCOCCNC(=O)c4ccc5c(N6C(=O)NC7(CC(c8ccccc8Cl)C7)C6=O)cncc5c4)c3C2=O)C(=O)N1 (centres unmarked) [Compound C10778Y, 4-(2-(2-chlorophenyl)-6,8-dioxo-5,7-diazaspiro[3.4]octan-7-yl)-N-(2-(2-(2-(2-((2-(2,6-dioxopiperidin-3-yl)-1,3-dioxoisoindolin-4-yl)oxy)ethoxy)ethoxy)ethoxy)ethyl)isoquinoline-7-carboxamide] | < 100 nM | < 25% | < 50% | – | – | –
11 | O=C1CCC(N2C(=O)c3cccc(OCCCCNC(=O)c4ccc5cncc(N6C(=O)NC7(CC(c8ccccc8Cl)C7)C6=O)c5c4)c3C2=O)C(=O)N1 (centres unmarked) [Compound C107780, 4-(2-(2-chlorophenyl)-6,8-dioxo-5,7-diazaspiro[3.4]octan-7-yl)-N-(4-((2-(2,6-dioxopiperidin-3-yl)-1,3-dioxoisoindolin-4-yl)oxy)butyl)isoquinoline-6-carboxamide] | < 100 nM | < 25% | > 75% | – | – | –
12 | O=C1CCC(N2C(=O)c3cccc(NCCCNC(=O)[C@@H](NC(=O)C(c4cccnc4)N(C(=O)c4ccco4)c4ccc5c(c4)oc4ccccc45)c4ccccc4)c3C2=O)C(=O)N1 (some centres unmarked) [TS284F2] | < 10000 nM | < 0% | < 0% | – | – | –
13 | O=C1CCC(N2C(=O)c3cccc(NCCCCCCNC(=O)[C@@H](NC(=O)C(c4cccnc4)N(C(=O)c4ccco4)c4ccc5c(c4)oc4ccccc45)c4ccccc4)c3C2=O)C(=O)N1 (some centres unmarked) [TS296] | > 25000 nM | < 0% | < 0% | – | – | –
